In paper PMC8071972, “Urinary L-erythro-β-hydroxyasparagine—a novel serine racemase inhibitor and substrate of the Zn^2+-dependent D-serine dehydratase” (Bioscience Reports, 2021):
Each block holds one molecule with its values, some of them ahead of it.

Experiments:
Assay type in all cases: biochemical
[1] = target: T1, serine racemase (mouse SR) (Mus musculus, UniProt Q9QZX7); experiment: enzymatic resolution of racemic β-EHAsp by recombinant enzyme
T1 construct: gene Srr; N-terminal His-tag, recombinant from E. coli
T1 sequence (Q9QZX7 1-339): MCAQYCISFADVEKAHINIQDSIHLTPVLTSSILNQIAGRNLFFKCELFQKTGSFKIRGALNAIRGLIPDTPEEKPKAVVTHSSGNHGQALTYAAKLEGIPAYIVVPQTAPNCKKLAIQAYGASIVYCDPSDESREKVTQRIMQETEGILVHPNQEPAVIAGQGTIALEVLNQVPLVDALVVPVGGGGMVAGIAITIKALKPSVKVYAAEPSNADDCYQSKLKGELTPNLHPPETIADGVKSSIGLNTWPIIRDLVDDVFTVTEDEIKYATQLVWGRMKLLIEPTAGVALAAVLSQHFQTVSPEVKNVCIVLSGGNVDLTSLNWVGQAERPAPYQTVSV

[2] = target: T2, D-serine dehydratase (Dsd1p) (Saccharomyces cerevisiae, UniProt P53095); experiment: HPLC and LC-ESI-MS of urinary amino acid degradation by purified enzyme
T2 construct: gene DSD1; N-terminal His-tagged protein
T2 sequence (P53095 1-428): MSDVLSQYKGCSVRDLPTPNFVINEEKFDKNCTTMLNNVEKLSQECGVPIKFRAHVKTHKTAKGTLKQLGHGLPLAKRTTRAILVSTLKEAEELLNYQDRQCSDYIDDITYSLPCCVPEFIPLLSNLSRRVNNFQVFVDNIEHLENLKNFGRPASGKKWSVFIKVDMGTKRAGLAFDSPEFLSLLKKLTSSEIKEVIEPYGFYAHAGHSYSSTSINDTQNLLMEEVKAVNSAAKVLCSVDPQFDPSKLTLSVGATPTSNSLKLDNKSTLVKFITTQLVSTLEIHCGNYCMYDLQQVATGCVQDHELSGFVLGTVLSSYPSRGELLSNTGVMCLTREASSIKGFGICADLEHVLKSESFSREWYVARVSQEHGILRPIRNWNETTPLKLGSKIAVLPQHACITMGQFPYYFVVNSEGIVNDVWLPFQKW

[3] = target: T3, asparaginase (AnsA; printed AsnA in the results, asparaginase 1) (Escherichia coli, UniProt P0A962); experiment: HPLC of urinary amino acids treated with purified enzyme
T3 construct: N-terminal His-tagged protein
T3 sequence (P0A962 1-338): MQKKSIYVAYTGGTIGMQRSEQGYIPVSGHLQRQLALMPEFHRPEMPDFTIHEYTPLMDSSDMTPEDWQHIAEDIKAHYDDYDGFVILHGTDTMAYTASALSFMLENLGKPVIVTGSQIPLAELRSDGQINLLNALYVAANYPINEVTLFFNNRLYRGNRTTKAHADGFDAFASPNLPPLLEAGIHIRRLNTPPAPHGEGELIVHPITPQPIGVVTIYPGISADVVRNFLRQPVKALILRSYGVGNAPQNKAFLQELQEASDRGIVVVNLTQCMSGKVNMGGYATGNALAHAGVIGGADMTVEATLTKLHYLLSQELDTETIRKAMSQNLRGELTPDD

[4] = target: T1, serine racemase (mouse SR); experiment: LDH-coupled L-Ser dehydration assay, steady-state kinetics
[5] = target: T4, asparagine synthase (AsnA) (Escherichia coli, UniProt P00963); experiment: preparative enzymatic amidation, HPLC
T4 construct: N-terminal His-tagged protein
T4 sequence (P00963 1-330): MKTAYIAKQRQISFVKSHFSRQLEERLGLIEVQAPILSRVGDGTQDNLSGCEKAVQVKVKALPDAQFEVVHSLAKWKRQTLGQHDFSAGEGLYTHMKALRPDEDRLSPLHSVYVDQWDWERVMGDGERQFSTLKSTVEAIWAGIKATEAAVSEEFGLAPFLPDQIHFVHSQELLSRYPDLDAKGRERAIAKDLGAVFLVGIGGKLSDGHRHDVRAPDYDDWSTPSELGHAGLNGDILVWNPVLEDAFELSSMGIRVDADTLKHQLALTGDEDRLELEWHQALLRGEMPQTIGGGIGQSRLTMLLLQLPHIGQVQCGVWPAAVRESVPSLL

SMILES: N[C@@H](C(=O)O)[C@H](O)C(=O)O (racemic) [D-β-EHAsp]
- enzymatic resolution of racemic β-EHAsp by recombinant enzyme [1]: could efficiently eliminate D-β-EHAsp from the racemic mixture

- Ki [4]: 40 ± 6 µM
SMILES: NC(=O)[C@H](O)[C@H](N)C(=O)O (stereo in doubt) [L-β-EHAsn, L-erythro-β-hydroxyasparagine]
- HPLC and LC-ESI-MS of urinary amino acid degradation by purified enzyme [2]: the urinary Dsd1p substrate was identified as the (2S, 3S)-isomer of β-OH-Asn (L-β-EHAsn)
- HPLC of urinary amino acids treated with purified enzyme [3]: Urinary β-OH-Asn could be converted into the corresponding isomer of β-hydroxy aspartate (β-OH-Asp) using the E. coli asparaginase

SMILES: N[C@H](C(=O)O)[C@@H](O)C(=O)O [L-β-EHAsp]
- preparative enzymatic amidation, HPLC [5]: L-β-EHAsp was further converted to L-β-EHAsn by the action of E. coli AsnA
